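96-well plates; 48 h exposure; 5 concentrations. Endpoints by linear interpolation between flanking doses. Not reached: highest tested concentration assigned. At the GI50, growth is halved. TGI marks complete inhibition of growth.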 Some results are limits rather than exact numbers.

The subject of one assay is SN12C renal. Description: NCI-60 cell line screen, 48 h.
For `CN(C(=O)c1ccc(C(F)(F)F)cc1)c1ccc(Oc2ccc3c(c2)cc(C(=O)N2CCN(Cc4ccc(OC(F)F)cc4)CC2)n3C)nc1`, the GI50 was above 100 µM and the TGI was above 100 µM.

In the case of `Cc1cc(-c2ccc3nc(C4CCOCC4)n(CCOC(F)(F)F)c3c2)cn(C)c1=O`, the GI50 is 1.22 µM and the TGI turned out to be 31.1 µM.

`Nc1ncnc2c1nnn2C1OC(CO)C(O)C1O` (centres undefined) showed a TGI of 6.77 µM.

The compound `COc1cc(C2c3cc4c(cc3OC(C)(O)C2C)OCO4)cc(OC)c1OC` (centres undefined) had a TGI above 100 µM.

For the compound `C[C@@H]1CCC2[C@@H](C)[C@@H](OCC(CO[C@H]3OC4O[C@@]5(C)CC[C@H]6[C@H](C)CCC([C@H]3C)[C@@]46OO5)OC(=O)CCC(=O)O)OC3O[C@@]4(C)CC[C@@H]1[C@]32OO4` (some centres undefined), the GI50 was 0.374 µM and the TGI is 23.4 µM.

In turn, `COc1cc(OC)cc(-c2cc(=O)c3c(OC)c(OC)c(OC)c(OC)c3o2)c1` gave a TGI above 100 µM.

Regarding `COc1cc2c(c(OC)c1OC)-c1ccc(OC)c(=O)cc1C(NC(=O)c1ccc(N=[N+]=[N-])cc1)CC2` (centres undefined), the TGI was above 41.9 µM.

With `COc1ccc([C@H]2[C@@H](F)C(=O)N2c2cc(OC)c(OC)c(OC)c2)cc1F`, the GI50 is 0.482 µM and the TGI was above 100 µM.

Consider `CC(=O)[C@@]12O[C@@H]1CC1C3CCC4=CC(O)CCC4(C)C3CCC12C` (some centres undefined), for which the GI50 is 81 µM and the TGI is above 100 µM.

On to `OCC#Cc1ccccc1C#Cc1ccccc1`, for which the GI50 was 8.79 µM and the TGI was 21.3 µM.

In the case of `NS(=O)(=O)c1cc(Br)c(N=Nc2ccc(O)c3ncccc23)c(Br)c1`, the TGI was above 100 µM.

With `O=C(/C=C/c1ccncc1)c1cc(Cl)ccc1O`, the GI50 was 23.4 µM and the TGI worked out at 68.4 µM.

As for `Cc1cc(/C=C/c2ccc3cc(N(C)C)ccc3[n+]2C)c(C)n1-c1ccccc1`, the GI50 is 0.159 µM and the TGI stood at 0.636 µM.

In turn, `Cc1ccc(S(=O)(=O)Nc2ccccc2C(=O)c2ccc(C)c(C)c2)cc1` came in with a TGI above 100 µM.

Consider `CC(C)C(C)/C=C\C(C)C1CCC2C3=CC=C4CC(O)CCC4(C)C3CCC21C` (centres undefined), for which the TGI was above 60.2 µM.

On to `OC(c1nc2ccccc2[nH]1)C(O)C(O)C(O)c1nc2ccccc2[nH]1` (centres undefined), for which the TGI is above 100 µM.

As to `CCOC(=O)c1cc2nc3ccccc3c(=O)n2c2ccccc12`, the TGI was above 10 µM.

In turn, `Cc1cc(O)c(/C=N/C(=S)NCc2ccccc2)c(=O)o1` showed a TGI above 100 µM.

For the compound `COc1cc2c3c(n(C)c(=O)c2cc1OC)-c1cc2c(cc1/C3=C\CCN)OCO2`, the GI50 is 0.583 µM and the TGI was found to be 17.6 µM.

Another assay concerns ACHN renal. As to the kind of experiment: NCI-60 cell line screen, 48 h.
As for `CN(C(=O)c1ccc(C(F)(F)F)cc1)c1ccc(Oc2ccc3c(c2)cc(C(=O)N2CCN(Cc4ccc(OC(F)F)cc4)CC2)n3C)nc1`, the GI50 was above 100 µM and the TGI was above 100 µM.

`Nc1ncnc2c1nnn2C1OC(CO)C(O)C1O` (centres undefined): the GI50 is 0.141 µM and the TGI was 8.84 µM.

`COc1cc(C2c3cc4c(cc3OC(C)(O)C2C)OCO4)cc(OC)c1OC` (centres undefined) came in with a TGI above 100 µM.

With `C[C@@H]1CCC2[C@@H](C)[C@@H](OCC(CO[C@H]3OC4O[C@@]5(C)CC[C@H]6[C@H](C)CCC([C@H]3C)[C@@]46OO5)OC(=O)CCC(=O)O)OC3O[C@@]4(C)CC[C@@H]1[C@]32OO4` (some centres undefined), the GI50 was 0.126 µM and the TGI turned out to be 17.5 µM.

Take `COc1cc(OC)cc(-c2cc(=O)c3c(OC)c(OC)c(OC)c(OC)c3o2)c1`: the TGI is above 100 µM.

Regarding `COc1cc2c(c(OC)c1OC)-c1ccc(OC)c(=O)cc1C(NC(=O)c1ccc(N=[N+]=[N-])cc1)CC2` (centres undefined), the TGI is above 100 µM.

As for `CC(=O)[C@@]12O[C@@H]1CC1C3CCC4=CC(O)CCC4(C)C3CCC12C` (some centres undefined), the GI50 is 44.9 µM and the TGI was above 100 µM.

On to `OCC#Cc1ccccc1C#Cc1ccccc1`, for which the GI50 is 14.9 µM and the TGI stood at 28.1 µM.

`NS(=O)(=O)c1cc(Br)c(N=Nc2ccc(O)c3ncccc23)c(Br)c1` gave a TGI of 43.9 µM.

`O=C(/C=C/c1ccncc1)c1cc(Cl)ccc1O`: the GI50 was 23.9 µM and the TGI is 60 µM.

With `Cc1cc(/C=C/c2ccc3cc(N(C)C)ccc3[n+]2C)c(C)n1-c1ccccc1`, the GI50 was 0.596 µM and the TGI was determined as 1.74 µM.

`COc1cc2c3c(n(C)c(=O)c2cc1OC)-c1cc2c(cc1/C3=C\CCCN)OCO2`: the GI50 was 2.09 µM and the TGI worked out at 8.64 µM.

With `Cc1ccc(S(=O)(=O)Nc2ccccc2C(=O)c2ccc(C)c(C)c2)cc1`, the TGI is above 100 µM.

`CC(C)C(C)/C=C\C(C)C1CCC2C3=CC=C4CC(O)CCC4(C)C3CCC21C` (centres undefined) registered a TGI above 65.7 µM.

As to `OC(c1nc2ccccc2[nH]1)C(O)C(O)C(O)c1nc2ccccc2[nH]1` (centres undefined), the TGI was above 100 µM.

Compound `CCOC(=O)c1cc2nc3ccccc3c(=O)n2c2ccccc12` registered a TGI above 10 µM.

Compound `Cc1cc(O)c(/C=N/C(=S)NCc2ccccc2)c(=O)o1` came in with a TGI above 100 µM.

For `COc1cc2c3c(n(C)c(=O)c2cc1OC)-c1cc2c(cc1/C3=C\CCN)OCO2`, the GI50 is 0.0476 µM and the TGI is 0.585 µM.

Another assay relates to K-562 leukemia. Description: NCI-60 cell line screen, 48 h.
With `CN(C(=O)c1ccc(C(F)(F)F)cc1)c1ccc(Oc2ccc3c(c2)cc(C(=O)N2CCN(Cc4ccc(OC(F)F)cc4)CC2)n3C)nc1`, the GI50 was below 0.01 µM and the TGI was above 100 µM.

On to `Cc1cc(-c2ccc3nc(C4CCOCC4)n(CCOC(F)(F)F)c3c2)cn(C)c1=O`, for which the GI50 is 0.507 µM.

The compound `Nc1ncnc2c1nnn2C1OC(CO)C(O)C1O` (centres undefined) registered a TGI of 13.9 µM.

In turn, `COc1cc(C2c3cc4c(cc3OC(C)(O)C2C)OCO4)cc(OC)c1OC` (centres undefined) returned a TGI of 11.9 µM.

Consider `C[C@@H]1CCC2[C@@H](C)[C@@H](OCC(CO[C@H]3OC4O[C@@]5(C)CC[C@H]6[C@H](C)CCC([C@H]3C)[C@@]46OO5)OC(=O)CCC(=O)O)OC3O[C@@]4(C)CC[C@@H]1[C@]32OO4` (some centres undefined), for which the GI50 is below 0.0479 µM and the TGI is above 42.2 µM.

Compound `COc1cc(OC)cc(-c2cc(=O)c3c(OC)c(OC)c(OC)c(OC)c3o2)c1` gave a TGI above 100 µM.

Consider `COc1cc2c(c(OC)c1OC)-c1ccc(OC)c(=O)cc1C(NC(=O)c1ccc(N=[N+]=[N-])cc1)CC2` (centres undefined), for which the TGI was above 39.2 µM.

Source of the values: PubChem BioAssay (NCI).
